The results in this text go back to publication PMC8901748, “A novel prostaglandin E receptor 4 (EP4) small molecule antagonist induces articular cartilage regeneration” (Cell Discovery, 2022).

Data set [1] relates to Sox9 promoter-Luc in ATDC5 cells. The data set is described as follows: Sox9 promoter-Luc luciferase reporter assay. The class given is cell-based, mouse. To be noted: 6 h. The procedure: (§1) Six firefly luciferase reporters were used in the Luciferase assay, including CRE-Luc (PathDetect CRE cis-Reporting System; Stratagene, La Jolla CA) driven by a basic promoter (TATA box) plus four repeats of CRE; Sox9 promoter-Luc contains human SOX9 proximal promoter region (−1034 bp to +67 bp)[45]; 4 × 48-p89-Luc, mouse Col2a1 minimal promoter. AP-1-Luc, Nf-κb-Luc, STAT-Luc were obtained from Stratagene. Chondrocytes were cultured in 24-well plates and 300 ng firefly luciferase reporter constructs were transiently transfected using transfection reagent TransExellent-DNA (Cenji Biotech Inc, China) following manufacturer’s instruction, and 15 ng of the Copia-Renilla luciferase reporter was co-transfected as a normalization control. Cells were treated with the indicated reagents for 48 h after transfection. The Dual-Luciferase measurements were performed in triplicate using the Luciferase assay kit (Promega) and a LUMIstar Omega luminometer (BMG Labtech, Mornington, Australia).
In general terms: In a reporter assay the amount or activity of a reporter protein is the signal.

In the next data set the test system is gastrointestinal tract. As to the kind of experiment: Gastrointestinal tract toxicity (data not shown). It counts as in vivo. To be noted: compared to Celecoxib.
The nature of data set [2]: Preliminary pharmacokinetic studies in CD1 mice. The class given is in vivo. The procedure:
To evaluate the preclinical pharmacokinetic (PK) profiles of compound HL-43 and HL-66, 36 male CD1 mice were randomly divided into four groups for PK studies. […] Blood samples were collected at 0.083, 0.25, 0.5, 1, 2, 4, 8, 12, and 24 h after administration (n = 3). Then the whole blood was centrifuged at 5500 × g for 15 min at 4 °C. After suitable sample preparation, the concentration of HL-43 and HL-66 in plasma sample was determined by Agilent HPLC-MS/MS system (Agilent Technologies, USA). Pharmacokinetic parameters were calculated by WinNonlin software version 7.0 based on non-compartmental analysis (Pharsight Corporation, Mountain View, USA). Mean plasma concentration-time curves were plotted by GraphPad Prism 7.0 (GraphPad Software Inc., CA, USA).

Another data set has as its system Nf-κb-Luc in ATDC5 cells. As to the kind of experiment: NF-κB-Luc luciferase reporter assay. The class given is cell-based, mouse. To be noted: 2 ng/ml IL-1β, 30 μM HL-43, 6 h. The procedure: as §1
Another data set concerns articular cartilage. As to the kind of experiment: Aging-induced cartilage defect (CD) mouse model. The class given is in vivo, mice (strain C57/BL/6). The following applies: 19-month-old mice, 30 mg/kg daily by gavage for 3 months. The procedure: WT male mice (strain C57/BL/6) were raised under identical conditions until 19 months. The vehicle, Celecoxib, and HL-43 were administered to mice at 30 mg/kg daily by gavage from 19 to 22 month, n = 9 for vehicle and HL-43-treated groups, n = 6 for Celecoxib treated group.
Knee joints of mice were fixed for 24 h in 4% paraformaldehyde (wt/vol), dehydrated into 100% ethanol, and decalcified for 1 week in 0.5 M EDTA pH 8.0. Paraffin-embedded tissue was sectioned (7 μm) and stained with Safranin O and Hematoxylin & Eosin (H&E) according to standard procedures. The OARSI histologic scoring of OA in the mouse was used to measure the cartilage and synovial damage of OA[71],[77]. Immunohistochemical staining for Col2a1, ColX, Sox9, p-CREB, and CREB were routinely performed and follow previous description. […] Histomorphometry and quantification were performed using ImageJ software. Quantification of Mmp13, ColX, Sox9 positive regions were quantified as the positive area/total cartilage area per field of view under ×40 objective magnification.

In data set [3] the test system is mouse femoral head cartilage explants. The data set is described as follows: Mouse femoral head cartilage explant culture. It counts as cell-based. The following applies: 1 ng/ml IL-1β, 48 h.

Turning to `C[C@H](NC(=O)c1c(-c2ccccc2)nnn1CCOc1ccc(F)cc1)c1ccc(C(=O)O)cc1` [HL-43], the “Sox9 promoter-Luc activity after IL-1β” value in data set [1] (2 ng/ml IL-1β) is given as “partially rescued the Sox9 transcriptional expression in a dose-dependent manner”. In addition, the “Sox9 promoter-Luc activity” value in data set [1] (without IL-1β) is on record as “increased by HL-43 stimulation in a dose-dependent manner”. In the data set on gastrointestinal tract, the “Toxicity in gastrointestinal tract” value is given as “lower toxicity”. Further, in data set [2] (I.V. (5 mg/kg)), the “AUC0-∞” value was 917.2 ng·h/mL, the C0 is listed as 1613.6 ng/mL, the CL came to 18.3 mL/min/kg and the Vd stood at 6.3 L/kg. For the same compound, the t1/2 in data set [2] (I.V. (5 mg/kg)) came out at 4.0 h. In data set [2] (P.O. (1 mg/kg)), the “AUC0-∞” value worked out at 1076.1 ng·h/mL, the CL came out at 76.7 mL/min/kg, the Cmax is 270.2 ng/mL and the Vd is 21.8 L/kg. In addition, the t1/2 in data set [2] (P.O. (1 mg/kg)) came to 3.3 h. The Bioavailability in data set [2] (oral) is recorded as 23.7%. Also, in the data set with Nf-κb-Luc in ATDC5 cells, the “NF-κB luciferase reporter activity” value is “not AP-1 or NF-κB”. For the same compound, the “Cartilage integrity and articular cartilage thickness” value with articular cartilage was “notably preserved cartilage integrity and had thicker articular cartilage”. Further, in data set [3], the Mmp13 immunohistochemistry staining result was “reduced immunohistochemistry staining for the catabolic marker Mmp13” and the “Proteoglycan content by S.O. staining” value is given as “favorable effect on the proteoglycan content”.

As a reminder, the Cmax is the highest concentration seen after dosing.
